Measured values reported in US9346820B2, “HIV-1 protease inhibitors having gem-di-fluoro bicyclic P2-ligands” (priority 2013, dated 2016).

Columns and labels:
[1] = system: HIV-1ERS104pre; assay: p24 Gag production inhibition in PHA-PBMs, wild-type clinical isolate; format: cell-based; settings: Human immunodeficiency virus 1; PHA-PBMs, p24 Gag endpoint; read-out: EC50 HIV-1ERS104pre (X4)
Description: (§1) All primary HIV-1 strains were passaged once or twice in 3-day-old phytohemagglutinin activated peripheral blood mononuclear cells (PHA-PBM), and the culture supernatants were stored at −80° C. until use.
(§2) The susceptibility of HIV-1LAI to various drugs was determined as previously described with minor modifications. Briefly, MT-2 cells (10^4/ml) were exposed to 100 50% tissue culture infectious doses (TCID50) of HIV-1LAI in the presence or absence of various concentrations of drugs in 96-well microculture plates and were incubated at 37° C. for 7 days. After 100 μl of the medium was removed from each well, 3-(4,5-dimetylthiazol-2-yl)-2,5-diphenyltetrazolium bromide (MTT) solution (10 μl, 7.5 mg/ml in phosphate-buffered saline) was added to each well in the plate, followed by incubation at 37° C. for 2 h. […] All assays were performed in duplicate or triplicate. […] To determine the sensitivity of primary HIV-1 isolates to drugs, phytohemagglutinin-stimulated peripheral blood mononuclear cells (PHA-PBMC) (10^6/ml) were exposed to 50 TCID50 of each primary HIV-1 isolate and cultured in the presence or absence of various concentrations of drugs in 10-fold serial dilutions in 96-well microculture plates. In determining the drug susceptibility of certain laboratory HIV-1 strains, MT-4 cells were employed as target cells as previously described with minor modifications. In brief, MT-4 cells (10^5/ml) were exposed to 100 TCID50 of drug-resistant HIV-1 strains in the presence or absence of various concentrations of drugs and were incubated at 37° C. On day 7 of culture, the supernatants were harvested and the amounts of p24 Gag protein were determined by using a fully automated chemiluminescent enzyme immunoassay system (Lumipulse F: Fujirebio Inc., Tokyo). […] All assays were performed in duplicate or triplicate. PHA-PBMs were derived from a single donor in each independent experiment. Thus, for obtaining the data, three different donors were recruited.

[2] = system: HIV-1MDR/TM; assay: microbe, parasite or virus in culture; format: cell-based
Description: as §1, §2

[3] = system: HIV-1MDR/B; assay: microbe, parasite or virus in culture; format: cell-based
Description: as §1, §2

[4] = system: HIV-1MDR/G; assay: microbe, parasite or virus in culture; format: cell-based
Description: as §1, §2

[5] = system: HIV-1MDR/MM; assay: microbe, parasite or virus in culture; format: cell-based
Description: as §1, §2

[6] = system: HIV-1MDR/JSL; assay: microbe, parasite or virus in culture; format: cell-based
Description: as §1, §2

[7] = system: HIV-1MDR/C; assay: microbe, parasite or virus in culture; format: cell-based
Description: as §1, §2

[8] = system: HIV-1SQV^R5μM; assay: microbe, parasite or virus in culture; format: cell-based
Description: as §2

[9] = system: HIV-1LPV^R5μM; assay: microbe, parasite or virus in culture; format: cell-based
Description: as §2

[10] = system: HIV-1ATV^R5μM; assay: microbe, parasite or virus in culture; format: cell-based
Description: as §2

[11] = system: HIV-1APV^R5μM; assay: microbe, parasite or virus in culture; format: cell-based
Description: as §2

[12] = Partition and distribution coefficients, shake-flask method; format: physicochemical
Description: On day −1 of the experimental setting, saturation of 1-octanol (CH3 (CH2)6CH2OH) (Nacalai Tesque, Kyoto, Japan) water and tris-buffered saline (10X working solution 20 mM Tris, pH 7.4 and 0.9% NaCl, Sigma-Aldrich, St. Louis, Mo.) took place. Four different flasks were used: One containing 50 ml of water plus 100 ml of 1-octanol, the second flask contained 1-octanol saturated with water adding 50 ml of 1-octanol and 100 ml of water. The same ratios and volumes were kept for 1-octanol saturated with tris-buffer and tris-buffer saturated with 1-octanol. The flasks were sealed and placed into a room temperature bio shaker for 24 hours at 90 revolutions per minute. […] Successive dilutions were made to obtain concentrations of 10 μM, 1 μM and 0.1 μM. A standard curve was generated on a light spectrophotometer (DU Series 700, Beckman Coulter Fullerton, Calif.) at 230 nanometer absorbances.
On day 1 of the experiment, the lipid and liquid interfaces were separated, and compounds were diluted again from 20 mM DMSO to 100 μM using the 1-octanol, water and Tris-buffered saline obtained from the shake-flask assay. The resulting diluted compounds were then added to separate serum tubes containing equal proportions of 1-octanol and water, and 1-octanol and Tris-buffered saline. The solution was handshaken for 5 minutes and then centrifuged at 3,500 rpm and room temperature for 20 minutes. Finally, the compounds were recovered from the 1-octanol, Tris-buffer and water interfaces and then measured on a light spectrophotometer.
The values for logP and logD were obtained by applying the following mathematical formulas: […]
The addition of fluorine atoms is generally expected to confer greater lipophilicity on nucleoside analogs and certain compounds (37-39). […] 1-Octanol, organic alcohol, and water were used for logP determination, while tris-buffered saline (pH 7.4) and water were utilized for logD determination. Prior to obtaining the actual values, a standard curve was generated as a reference and drug concentrations attained for each compartment (1-octanol, water and tris-buffered saline) were measured on a light spectrophotometer (at 230 nanometer absorbance) as previously described by Rak et al. (40).
DRV was used as a control. N-octanol, an organic alcohol, and water were used for logP determination, while tris buffer and water were utilized for the logD assay. Prior to the retrieval of actual values a standard curve was generated as a reference. The drug concentrations for each compartment (octanol, water and tris buffer) were measured at 230 nanometer absorbances using a light spectrophotometer. Assay was performed following the OECD guidelines for testing of chemicals “Partition coefficient (n-octanol-water): shake flask method”, adopted by the council on 27 Jul. 1995.^(a) n-octanol used for logPOW determination;^(b) n-octanol used for logD assay. The formulas

CC(C)CN(C[C@@H](O)[C@H](Cc1ccccc1)NC(=O)O[C@H]1CO[C@H]2OCC(F)(F)[C@H]21)S(=O)(=O)c1ccc(N)cc1 [GRL-05010]
EC50 [1]: 2.7 nM
EC50 ([2]; Human immunodeficiency virus 1, read-out: EC50 HIV-1MDR/TM (X4)): 4 nM
fold change of EC50 HIV-1MDR/TM vs HIV-1ERS104pre ([2]; number in parentheses): 2 fold
EC50 ([3]; Human immunodeficiency virus 1, read-out: EC50 HIV-1MDR/B (X4)): 11 nM
fold change of EC50 HIV-1MDR/B vs HIV-1ERS104pre ([3]; number in parentheses): 3 fold
EC50 ([4]; Human immunodeficiency virus 1, read-out: EC50 HIV-1MDR/G (X4)): 4 nM
fold change of EC50 HIV-1MDR/G vs HIV-1ERS104pre ([4]; number in parentheses): 1 fold
EC50 ([5]; Human immunodeficiency virus 1, read-out: EC50 HIV-1MDR/MM (R5)): 3 nM
fold change of EC50 HIV-1MDR/MM vs HIV-1ERS104pre ([5]; number in parentheses): 1 fold
EC50 ([6]; Human immunodeficiency virus 1, read-out: EC50 HIV-1MDR/JSL (R5)): 20 nM
fold change of EC50 HIV-1MDR/JSL vs HIV-1ERS104pre ([6]; number in parentheses): 7 fold
EC50 ([7]; Human immunodeficiency virus 1, read-out: EC50 HIV-1MDR/C (X4)): 2 nM
fold change of EC50 HIV-1MDR/C vs HIV-1ERS104pre ([7]; number in parentheses): 1 fold
EC50 ([8]; Human immunodeficiency virus 1, MT4, read-out: EC50 HIV-1SQV^R5μM): 46 nM
fold change of EC50 HIV-1SQV^R5μM vs HIV-1NL4-3 ([8]; number in parentheses): 13 fold
EC50 ([9]; Human immunodeficiency virus 1, MT4, read-out: EC50 HIV-1LPV^R5μM): 30 nM
fold change of EC50 HIV-1LPV^R5μM vs HIV-1NL4-3 ([9]; number in parentheses): 8 fold
EC50 ([10]; Human immunodeficiency virus 1, MT4, read-out: EC50 HIV-1ATV^R5μM): 40 nM
fold change of EC50 HIV-1ATV^R5μM vs HIV-1NL4-3 ([10]; number in parentheses): 12 fold
EC50 ([11]; Human immunodeficiency virus 1, MT4, read-out: EC50 HIV-1APV^R5μM): 560 nM
fold change of EC50 HIV-1APV^R5μM vs HIV-1NL4-3 ([11]; number in parentheses): 187 fold
Log POW (Octanol/Water) [12]: −0.83
Concentration in octanol^(b) ([12]; n-octanol used for logD assay): 14.09 µM
Concentration in octanol^(a) ([12]; n-octanol used for logPOW determination): 18.70 µM
Log DOct/Tris pH 7.40 ([12]; pH 7.4): −1.01
Concentration in tris buffer ([12]; shake flask, 100 μM, 230 nm): 49.84 µM
Concentration in water ([12]; shake flask, 100 μM, 230 nm): 94.55 µM
